{"source": "patent US20110039721A1", "about": "“METHOD FOR PREDICTION ABOUT CARCINOGENICITY OF SUBSTANCE IN RODENT” (Chemicals Evaluation and Research Institute, priority 2007, published 2011)", "tested_on": "mRNA expressed from the genes (A) to (D) in rat liver", "experiment": "Behavior of genes (mRNA expression level, oligo-DNA microarray) in rat liver after 28-day oral administration", "format": "in vivo", "conditions": "mRNA vs vehicle control group", "procedure": "A test solution was prepared by dissolving each of the carcinogens and the non-carcinogens shown in Tables 2 to 6 in the corresponding solvent shown in Tables 2 to 6. Each of the thus prepared test solutions and the solvents used for the preparation was administered by oral gavage to rats in each group. As the rats, male rats (F344 SPF rats) at 5 weeks of age obtained from Charles River Laboratories Japan, Inc. were used. The animals were divided into groups, each containing four individuals. The volume of the solvent administered to the vehicle control group was set to the same volume as that of the test solution administered to the carcinogen administration group or the non-carcinogen administration group. The administration of the test solution or the solvent was performed once daily for 28 days. Apiece was excised from the liver of each of the rats after a lapse of 28 days from the initiation of the administration, and the total RNA was extracted and purified.\nThe expression level of mRNA was compared between each of the chemical substance administration groups and the corresponding vehicle control group, and genes that satisfy the requirements described in (A) to (D) were selected, respectively.\nThe case where the expression level of mRNA in the carcinogen administration group or the non-carcinogen administration group is 1.5 times or more or 1/1.5 or less of the expression level of the corresponding mRNA expressed in the control group was determined to be significant. In this connection, the determination as to whether or not the change is significant was performed by taking into consideration the direction of increase or decrease in the expression level. In the case where the direction of increase or decrease is different as compared with the case where another carcinogen was administered, the change was determined to be not significant.", "key": {"[1]": {"conditions": "gene group (A), Unigene No. Rn.167075"}, "[2]": {"conditions": "gene group (C), Unigene No. Rn.120914"}}, "data": [{"smiles": "c1ccc2c(c1)cc1ccc3cccc4ccc2c1c34", "note": "[TS063, Benzo[a]pyrene]", "values": [{"measurement": "Behavior of gene caused by administration of chemical substance, Gene No. 4846", "setting": "gene group (A), Unigene No. Rn.144554", "value": "−"}, {"measurement": "Behavior of gene caused by administration of chemical substance, Gene No. 2026", "setting": "[1]", "value": "+"}, {"measurement": "Behavior of gene caused by administration of chemical substance, Gene No. 4218", "setting": "[1]", "value": "−"}, {"measurement": "Behavior of gene caused by administration of chemical substance, Gene No. 6182", "setting": "gene group (A), Unigene No. Rn.5834", "value": "+"}, {"measurement": "Behavior of gene caused by administration of chemical substance, Gene No. 5600", "setting": "gene group (A), Unigene No. Rn.9836", "value": "−"}, {"measurement": "Behavior of gene caused by administration of chemical substance, Gene No. 1494", "setting": "gene group (B), Unigene No. Rn.1430", "value": "−"}, {"measurement": "Behavior of gene caused by administration of chemical substance, Gene No. 2045", "setting": "gene group (B), Unigene No. Rn.19329", "value": "+"}, {"measurement": "Behavior of gene caused by administration of chemical substance, Gene No. 2203", "setting": "gene group (B), Unigene No. Rn.21240", "value": "+"}, {"measurement": "Behavior of gene caused by administration of chemical substance, Gene No. 533", "setting": "gene group (C), Unigene No. Rn.106184", "value": "−"}, {"measurement": "Behavior of gene caused by administration of chemical substance, Gene No. 725", "setting": "gene group (C), Unigene No. Rn.108075", "value": "−"}, {"measurement": "Behavior of gene caused by administration of chemical substance, Gene No. 1163", "setting": "gene group (C), Unigene No. Rn.11766", "value": "−"}, {"measurement": "Behavior of gene caused by administration of chemical substance, Gene No. 4973", "setting": "gene group (C), Unigene No. Rn.118529", "value": "−"}, {"measurement": "Behavior of gene caused by administration of chemical substance, Gene No. 4095", "setting": "gene group (C), Unigene No. Rn.119024", "value": "−"}, {"measurement": "Behavior of gene caused by administration of chemical substance, Gene No. 1334", "setting": "[2]", "value": "−"}, {"measurement": "Behavior of gene caused by administration of chemical substance, Gene No. 6620", "setting": "[2]", "value": "−"}, {"measurement": "Behavior of gene caused by administration of chemical substance, Gene No. 6303", "setting": "gene group (C), Unigene No. Rn.123063", "value": "−"}, {"measurement": "Behavior of gene caused by administration of chemical substance, Gene No. 5878", "setting": "gene group (C), Unigene No. Rn.143213", "value": "−"}, {"measurement": "Behavior of gene caused by administration of chemical substance, Gene No. 1131", "setting": "gene group (C), Unigene No. Rn.144946", "value": "−"}, {"measurement": "Behavior of gene caused by administration of chemical substance, Gene No. 1562", "setting": "gene group (C), Unigene No. Rn.14744", "value": "−"}, {"measurement": "Behavior of gene caused by administration of chemical substance, Gene No. 1741", "setting": "gene group (C), Unigene No. Rn.1647", "value": "−"}, {"measurement": "Behavior of gene caused by administration of chemical substance, Gene No. 893", "setting": "gene group (C), Unigene No. Rn.164817", "value": "−"}, {"measurement": "Behavior of gene caused by administration of chemical substance, Gene No. 6026", "setting": "gene group (C), Unigene No. Rn.167685", "value": "−"}, {"measurement": "Behavior of gene caused by administration of chemical substance, Gene No. 154", "setting": "gene group (C), Unigene No. Rn.185941", "value": "−"}, {"measurement": "Behavior of gene caused by administration of chemical substance, Gene No. 1993", "setting": "gene group (C), Unigene No. Rn.18728", "value": "−"}, {"measurement": "Behavior of gene caused by administration of chemical substance, Gene No. 813", "setting": "gene group (C), Unigene No. Rn.201760", "value": "−"}, {"measurement": "Behavior of gene caused by administration of chemical substance, Gene No. 2494", "setting": "gene group (C), Unigene No. Rn.23969", "value": "−"}, {"measurement": "Behavior of gene caused by administration of chemical substance, Gene No. 2546", "setting": "gene group (C), Unigene No. Rn.24561", "value": "−"}, {"measurement": "Behavior of gene caused by administration of chemical substance, Gene No. 3776", "setting": "gene group (C), Unigene No. Rn.43232", "value": "−"}, {"measurement": "Behavior of gene caused by administration of chemical substance, Gene No. 3929", "setting": "gene group (C), Unigene No. Rn.4620", "value": "−"}, {"measurement": "Behavior of gene caused by administration of chemical substance, Gene No. 1119", "setting": "gene group (C), Unigene No. Rn.9757", "value": "−"}, {"measurement": "Behavior of gene caused by administration of chemical substance, Gene No. 6742", "setting": "gene group (C), Unigene No. Rn.9779", "value": "−"}, {"measurement": "Behavior of gene caused by administration of chemical substance, Gene No. 5634", "setting": "gene group (C), Unigene No. Rn.9862", "value": "+"}, {"measurement": "Behavior of gene caused by administration of chemical substance, Gene No. 5726", "setting": "gene group (D), Unigene No. Rn.9939", "value": "−"}]}]}
